Laboratory results taken from article PMC10905675, “INX-315, a Selective CDK2 Inhibitor, Induces Cell Cycle Arrest and Senescence in Solid Tumors” (Cancer Discovery, 2023).

What was measured:
Test in all cases: SelectScreen LanthaScreen Binding
Conditions in all cases: INX-0315 at 100nM
ABL1 Q252H = target: T1, ABL1 Q252H (Homo sapiens, UniProt P00519, Q252H)
T1 construct: purchased Thermo Fisher Scientific SelectScreen (plus Nanosyn / Reaction Biology for CDK/cyclin lines)
From the text: (§1) INX-315 was first evaluated in the SelectScreen Biochemical Kinase Profiling at Thermo Fisher Scientific (Madison, WI). The primary screen consisted of INX-315 dosed at a single concentration of 100 nmol/L in 1% DMSO across each platform within the SelectScreen array of assays, LanthaScreen Eu Kinase Binding Assay; AdaptaScreen; and Z'LyteScreen using preestablished conditions at Thermo Fisher Scientific as shown in Supplementary Table S2. […] The follow-up screen consisted of 10-point dose–response curves for INX-315 from 1 µmol/L to 0.0495 nmol/L.

ACVR1 (ALK2) = target: T2, ACVR1 (ALK2) (Homo sapiens, UniProt Q04771)
T2 construct: purchased Thermo Fisher Scientific SelectScreen (plus Nanosyn / Reaction Biology for CDK/cyclin lines)
From the text: as §1

ALK R1275Q = target: T3, ALK R1275Q (Homo sapiens, UniProt Q9UM73, R1275Q)
T3 construct: purchased Thermo Fisher Scientific SelectScreen (plus Nanosyn / Reaction Biology for CDK/cyclin lines)
From the text: as §1

ALK T1151_L1152insT = target: T4, ALK T1151_L1152insT (Homo sapiens, UniProt Q9UM73, INS1151T)
T4 construct: purchased Thermo Fisher Scientific SelectScreen (plus Nanosyn / Reaction Biology for CDK/cyclin lines)
From the text: as §1

AXL R499C = target: T5, AXL R499C (Homo sapiens, UniProt P30530, R499C)
T5 construct: purchased Thermo Fisher Scientific SelectScreen (plus Nanosyn / Reaction Biology for CDK/cyclin lines)
From the text: as §1

BMPR1B (ALK6) = target: T6, BMPR1B (ALK6) (Homo sapiens, UniProt O00238)
T6 construct: purchased Thermo Fisher Scientific SelectScreen (plus Nanosyn / Reaction Biology for CDK/cyclin lines)
From the text: as §1

BMPR2 = target: T7, BMPR2 (Homo sapiens, UniProt Q13873)
T7 construct: purchased Thermo Fisher Scientific SelectScreen (plus Nanosyn / Reaction Biology for CDK/cyclin lines)
From the text: as §1

CAMKK2 (CaMKK beta) = target: T8, CAMKK2 (CaMKK beta) (Homo sapiens, UniProt Q96RR4)
T8 construct: purchased Thermo Fisher Scientific SelectScreen (plus Nanosyn / Reaction Biology for CDK/cyclin lines)
From the text: as §1

CDK9 (Inactive) = target: T9, CDK9 (Inactive) (Homo sapiens, UniProt P50750)
T9 construct: purchased Thermo Fisher Scientific SelectScreen (plus Nanosyn / Reaction Biology for CDK/cyclin lines)
From the text: as §1

DDR2 T654M = target: T10, DDR2 T654M (Homo sapiens, UniProt Q16832, T654M)
T10 construct: purchased Thermo Fisher Scientific SelectScreen (plus Nanosyn / Reaction Biology for CDK/cyclin lines)
From the text: as §1

DYRK2 = target: T11, DYRK2 (Homo sapiens, UniProt Q92630)
T11 construct: purchased Thermo Fisher Scientific SelectScreen (plus Nanosyn / Reaction Biology for CDK/cyclin lines)
From the text: as §1

EPHA6 = target: T12, EPHA6 (Homo sapiens, UniProt Q9UF33)
T12 construct: purchased Thermo Fisher Scientific SelectScreen (plus Nanosyn / Reaction Biology for CDK/cyclin lines)
From the text: as §1

FGFR3 G697C = target: T13, FGFR3 G697C (Homo sapiens, UniProt P22607, G697C)
T13 construct: purchased Thermo Fisher Scientific SelectScreen (plus Nanosyn / Reaction Biology for CDK/cyclin lines)
From the text: as §1

ICK = target: T14, ICK (Homo sapiens, UniProt Q9UPZ9)
T14 construct: purchased Thermo Fisher Scientific SelectScreen (plus Nanosyn / Reaction Biology for CDK/cyclin lines)
From the text: as §1

KIT D816V = target: T15, KIT D816V (Homo sapiens, UniProt P10721, D816V)
T15 construct: purchased Thermo Fisher Scientific SelectScreen (plus Nanosyn / Reaction Biology for CDK/cyclin lines)
From the text: as §1

KIT D820E = target: T16, KIT D820E (Homo sapiens, UniProt P10721, D820E)
T16 construct: purchased Thermo Fisher Scientific SelectScreen (plus Nanosyn / Reaction Biology for CDK/cyclin lines)
From the text: as §1

KIT T670E = target: T17, KIT T670E (Homo sapiens, UniProt P10721, T670E)
T17 construct: purchased Thermo Fisher Scientific SelectScreen (plus Nanosyn / Reaction Biology for CDK/cyclin lines)
From the text: as §1

KIT Y823D = target: T18, KIT Y823D (Homo sapiens, UniProt P10721, Y823D)
T18 construct: purchased Thermo Fisher Scientific SelectScreen (plus Nanosyn / Reaction Biology for CDK/cyclin lines)
From the text: as §1

MAP2K2 (MEK2) = target: T19, MAP2K2 (MEK2) (Homo sapiens, UniProt P36507)
T19 construct: purchased Thermo Fisher Scientific SelectScreen (plus Nanosyn / Reaction Biology for CDK/cyclin lines)
From the text: as §1

MAP2K4 (MEK4) = target: T20, MAP2K4 (MEK4) (Homo sapiens, UniProt P45985)
T20 construct: purchased Thermo Fisher Scientific SelectScreen (plus Nanosyn / Reaction Biology for CDK/cyclin lines)
From the text: as §1

MAP3K3 (MEKK3) = target: T21, MAP3K3 (MEKK3) (Homo sapiens, UniProt Q99759)
T21 construct: purchased Thermo Fisher Scientific SelectScreen (plus Nanosyn / Reaction Biology for CDK/cyclin lines)
From the text: as §1

[1] = target: T22, MAP3K7/MAP3K7IP1 (TAK1-TAB1) (Homo sapiens, UniProt O43318)
T22 construct: purchased Thermo Fisher Scientific SelectScreen (plus Nanosyn / Reaction Biology for CDK/cyclin lines)
From the text: as §1

MASTL = target: T23, MASTL (Homo sapiens, UniProt Q96GX5)
T23 construct: purchased Thermo Fisher Scientific SelectScreen (plus Nanosyn / Reaction Biology for CDK/cyclin lines)
From the text: as §1

NEK8 = target: T24, NEK8 (Homo sapiens, UniProt Q86SG6)
T24 construct: purchased Thermo Fisher Scientific SelectScreen (plus Nanosyn / Reaction Biology for CDK/cyclin lines)
From the text: as §1

PLK4 = target: T25, PLK4 (Homo sapiens, UniProt O00444)
T25 construct: purchased Thermo Fisher Scientific SelectScreen (plus Nanosyn / Reaction Biology for CDK/cyclin lines)
From the text: as §1

PRKACG (PRKAC gamma) = target: T26, PRKACG (PRKAC gamma) (Homo sapiens, UniProt P22612)
T26 construct: purchased Thermo Fisher Scientific SelectScreen (plus Nanosyn / Reaction Biology for CDK/cyclin lines)
From the text: as §1

RET V804M = target: T27, RET V804M (Homo sapiens, UniProt P07949, V804M)
T27 construct: purchased Thermo Fisher Scientific SelectScreen (plus Nanosyn / Reaction Biology for CDK/cyclin lines)
From the text: as §1

RIPK2 = target: T28, RIPK2 (Homo sapiens, UniProt O43353)
T28 construct: purchased Thermo Fisher Scientific SelectScreen (plus Nanosyn / Reaction Biology for CDK/cyclin lines)
From the text: as §1

RIPK3 = target: T29, RIPK3 (Homo sapiens, UniProt Q9Y572)
T29 construct: purchased Thermo Fisher Scientific SelectScreen (plus Nanosyn / Reaction Biology for CDK/cyclin lines)
From the text: as §1

SIK1 = target: T30, SIK1 (Homo sapiens, UniProt P57059)
T30 construct: purchased Thermo Fisher Scientific SelectScreen (plus Nanosyn / Reaction Biology for CDK/cyclin lines)
From the text: as §1

STK16 (PKL12) = target: T31, STK16 (PKL12) (Homo sapiens, UniProt O75716)
T31 construct: purchased Thermo Fisher Scientific SelectScreen (plus Nanosyn / Reaction Biology for CDK/cyclin lines)
From the text: as §1

STK17A (DRAK1) = target: T32, STK17A (DRAK1) (Homo sapiens, UniProt Q9UEE5)
T32 construct: purchased Thermo Fisher Scientific SelectScreen (plus Nanosyn / Reaction Biology for CDK/cyclin lines)
From the text: as §1

STK32C (YANK3) = target: T33, STK32C (YANK3) (Homo sapiens, UniProt Q86UX6)
T33 construct: purchased Thermo Fisher Scientific SelectScreen (plus Nanosyn / Reaction Biology for CDK/cyclin lines)
From the text: as §1

TAOK1 = target: T34, TAOK1 (Homo sapiens, UniProt Q7L7X3)
T34 construct: purchased Thermo Fisher Scientific SelectScreen (plus Nanosyn / Reaction Biology for CDK/cyclin lines)
From the text: as §1

TEC = target: T35, TEC (Homo sapiens, UniProt P42680)
T35 construct: purchased Thermo Fisher Scientific SelectScreen (plus Nanosyn / Reaction Biology for CDK/cyclin lines)
From the text: as §1

TESK1 = target: T36, TESK1 (Homo sapiens, UniProt Q15569)
T36 construct: purchased Thermo Fisher Scientific SelectScreen (plus Nanosyn / Reaction Biology for CDK/cyclin lines)
From the text: as §1

TGFBR2 = target: T37, TGFBR2 (Homo sapiens, UniProt P37173)
T37 construct: purchased Thermo Fisher Scientific SelectScreen (plus Nanosyn / Reaction Biology for CDK/cyclin lines)
From the text: as §1

WNK1 = target: T38, WNK1 (Homo sapiens, UniProt Q9H4A3)
T38 construct: purchased Thermo Fisher Scientific SelectScreen (plus Nanosyn / Reaction Biology for CDK/cyclin lines)
From the text: as §1

T12 sequence (Q9UF33 23-1036): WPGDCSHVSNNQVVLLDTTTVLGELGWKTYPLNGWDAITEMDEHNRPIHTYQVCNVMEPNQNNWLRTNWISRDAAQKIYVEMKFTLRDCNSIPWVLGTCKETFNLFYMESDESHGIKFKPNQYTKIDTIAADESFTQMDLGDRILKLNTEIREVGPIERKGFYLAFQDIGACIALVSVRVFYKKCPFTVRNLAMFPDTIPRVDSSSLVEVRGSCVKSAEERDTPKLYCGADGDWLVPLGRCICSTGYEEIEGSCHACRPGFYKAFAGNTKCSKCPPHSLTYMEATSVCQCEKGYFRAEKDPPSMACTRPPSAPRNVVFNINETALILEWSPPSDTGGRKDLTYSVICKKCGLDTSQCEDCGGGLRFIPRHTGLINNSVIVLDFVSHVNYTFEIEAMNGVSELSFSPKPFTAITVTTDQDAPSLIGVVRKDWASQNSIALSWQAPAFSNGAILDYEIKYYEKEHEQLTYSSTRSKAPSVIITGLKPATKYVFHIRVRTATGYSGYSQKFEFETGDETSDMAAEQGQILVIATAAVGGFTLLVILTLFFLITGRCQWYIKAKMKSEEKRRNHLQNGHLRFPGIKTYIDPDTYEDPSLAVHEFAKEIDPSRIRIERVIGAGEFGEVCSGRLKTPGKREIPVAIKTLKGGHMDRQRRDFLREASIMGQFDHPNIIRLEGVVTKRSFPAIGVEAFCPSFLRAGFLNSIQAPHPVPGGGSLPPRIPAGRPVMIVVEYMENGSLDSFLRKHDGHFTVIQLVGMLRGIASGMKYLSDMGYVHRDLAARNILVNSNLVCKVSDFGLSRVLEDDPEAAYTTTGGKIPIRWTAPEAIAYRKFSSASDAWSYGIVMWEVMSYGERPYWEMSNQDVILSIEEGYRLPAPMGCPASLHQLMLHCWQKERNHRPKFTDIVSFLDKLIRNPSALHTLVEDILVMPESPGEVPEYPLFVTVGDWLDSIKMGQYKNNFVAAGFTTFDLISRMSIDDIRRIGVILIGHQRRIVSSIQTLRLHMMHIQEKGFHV
T24 sequence (Q86SG6 whole entry): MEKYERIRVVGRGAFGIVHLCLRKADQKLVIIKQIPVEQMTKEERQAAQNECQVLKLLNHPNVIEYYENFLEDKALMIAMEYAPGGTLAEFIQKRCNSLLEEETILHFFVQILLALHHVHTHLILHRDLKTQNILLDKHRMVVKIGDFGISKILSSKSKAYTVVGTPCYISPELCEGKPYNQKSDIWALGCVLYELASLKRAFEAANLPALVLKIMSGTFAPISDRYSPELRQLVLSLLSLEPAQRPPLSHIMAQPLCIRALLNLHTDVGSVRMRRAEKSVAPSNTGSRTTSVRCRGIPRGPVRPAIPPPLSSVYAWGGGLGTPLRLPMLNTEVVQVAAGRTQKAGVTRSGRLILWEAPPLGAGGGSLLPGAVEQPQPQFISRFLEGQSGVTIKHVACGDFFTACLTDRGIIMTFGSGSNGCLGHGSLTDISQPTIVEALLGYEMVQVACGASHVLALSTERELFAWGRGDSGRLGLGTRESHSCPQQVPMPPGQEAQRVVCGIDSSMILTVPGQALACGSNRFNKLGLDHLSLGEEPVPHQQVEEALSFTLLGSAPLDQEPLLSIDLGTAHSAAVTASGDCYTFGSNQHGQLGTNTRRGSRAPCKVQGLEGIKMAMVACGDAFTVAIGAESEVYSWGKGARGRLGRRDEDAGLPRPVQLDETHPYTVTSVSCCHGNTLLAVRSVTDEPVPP
T6 sequence (O00238 14-502): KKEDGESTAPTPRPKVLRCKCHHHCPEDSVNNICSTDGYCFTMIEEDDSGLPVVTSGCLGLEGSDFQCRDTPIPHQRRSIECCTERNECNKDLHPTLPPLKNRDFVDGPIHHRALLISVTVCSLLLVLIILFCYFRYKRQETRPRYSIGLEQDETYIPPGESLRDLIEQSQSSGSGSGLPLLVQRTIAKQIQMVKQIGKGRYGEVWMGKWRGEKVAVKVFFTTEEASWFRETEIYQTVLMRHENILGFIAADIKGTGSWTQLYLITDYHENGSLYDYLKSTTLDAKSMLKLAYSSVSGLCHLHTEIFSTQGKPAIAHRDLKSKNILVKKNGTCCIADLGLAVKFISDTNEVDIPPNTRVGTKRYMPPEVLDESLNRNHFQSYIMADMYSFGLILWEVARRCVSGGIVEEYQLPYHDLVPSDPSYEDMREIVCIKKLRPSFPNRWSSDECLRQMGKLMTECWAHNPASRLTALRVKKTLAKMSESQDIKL
T15 sequence (P10721 26-976 D816V): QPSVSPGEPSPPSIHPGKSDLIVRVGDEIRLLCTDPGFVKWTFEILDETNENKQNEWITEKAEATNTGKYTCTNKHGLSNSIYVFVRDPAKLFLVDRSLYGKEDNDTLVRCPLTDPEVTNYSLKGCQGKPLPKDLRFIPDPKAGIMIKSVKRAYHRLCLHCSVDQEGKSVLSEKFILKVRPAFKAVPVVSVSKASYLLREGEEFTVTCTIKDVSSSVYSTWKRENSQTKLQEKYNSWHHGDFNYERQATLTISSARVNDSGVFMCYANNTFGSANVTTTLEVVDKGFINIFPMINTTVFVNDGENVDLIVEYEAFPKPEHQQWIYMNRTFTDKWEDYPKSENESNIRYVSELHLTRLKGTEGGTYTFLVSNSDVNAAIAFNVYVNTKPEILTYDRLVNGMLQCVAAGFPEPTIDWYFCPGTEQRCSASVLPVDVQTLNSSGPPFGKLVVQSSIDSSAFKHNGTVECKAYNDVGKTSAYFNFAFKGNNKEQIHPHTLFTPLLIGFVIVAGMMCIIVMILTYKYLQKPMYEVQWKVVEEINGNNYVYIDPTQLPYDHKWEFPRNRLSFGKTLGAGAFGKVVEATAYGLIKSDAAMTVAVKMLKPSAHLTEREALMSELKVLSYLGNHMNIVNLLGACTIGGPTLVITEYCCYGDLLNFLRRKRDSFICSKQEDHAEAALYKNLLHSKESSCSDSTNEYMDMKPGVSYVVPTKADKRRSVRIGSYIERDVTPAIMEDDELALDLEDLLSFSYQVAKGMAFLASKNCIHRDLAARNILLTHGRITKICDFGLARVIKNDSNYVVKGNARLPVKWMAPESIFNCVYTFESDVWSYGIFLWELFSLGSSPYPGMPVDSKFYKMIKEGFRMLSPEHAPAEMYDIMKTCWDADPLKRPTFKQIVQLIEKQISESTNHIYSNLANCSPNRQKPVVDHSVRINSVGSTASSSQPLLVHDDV
T19 sequence (P36507 whole entry): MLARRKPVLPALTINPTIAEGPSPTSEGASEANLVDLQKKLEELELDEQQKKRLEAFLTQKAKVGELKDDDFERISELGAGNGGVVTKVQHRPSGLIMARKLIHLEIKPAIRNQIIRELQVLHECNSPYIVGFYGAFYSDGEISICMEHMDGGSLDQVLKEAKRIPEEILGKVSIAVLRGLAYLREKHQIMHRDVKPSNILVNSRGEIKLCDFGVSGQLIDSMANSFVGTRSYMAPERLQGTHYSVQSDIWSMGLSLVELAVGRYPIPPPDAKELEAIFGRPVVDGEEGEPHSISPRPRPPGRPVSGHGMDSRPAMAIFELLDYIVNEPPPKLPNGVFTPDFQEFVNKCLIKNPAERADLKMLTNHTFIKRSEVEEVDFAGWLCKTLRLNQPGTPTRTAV
T7 sequence (Q13873 27-1038): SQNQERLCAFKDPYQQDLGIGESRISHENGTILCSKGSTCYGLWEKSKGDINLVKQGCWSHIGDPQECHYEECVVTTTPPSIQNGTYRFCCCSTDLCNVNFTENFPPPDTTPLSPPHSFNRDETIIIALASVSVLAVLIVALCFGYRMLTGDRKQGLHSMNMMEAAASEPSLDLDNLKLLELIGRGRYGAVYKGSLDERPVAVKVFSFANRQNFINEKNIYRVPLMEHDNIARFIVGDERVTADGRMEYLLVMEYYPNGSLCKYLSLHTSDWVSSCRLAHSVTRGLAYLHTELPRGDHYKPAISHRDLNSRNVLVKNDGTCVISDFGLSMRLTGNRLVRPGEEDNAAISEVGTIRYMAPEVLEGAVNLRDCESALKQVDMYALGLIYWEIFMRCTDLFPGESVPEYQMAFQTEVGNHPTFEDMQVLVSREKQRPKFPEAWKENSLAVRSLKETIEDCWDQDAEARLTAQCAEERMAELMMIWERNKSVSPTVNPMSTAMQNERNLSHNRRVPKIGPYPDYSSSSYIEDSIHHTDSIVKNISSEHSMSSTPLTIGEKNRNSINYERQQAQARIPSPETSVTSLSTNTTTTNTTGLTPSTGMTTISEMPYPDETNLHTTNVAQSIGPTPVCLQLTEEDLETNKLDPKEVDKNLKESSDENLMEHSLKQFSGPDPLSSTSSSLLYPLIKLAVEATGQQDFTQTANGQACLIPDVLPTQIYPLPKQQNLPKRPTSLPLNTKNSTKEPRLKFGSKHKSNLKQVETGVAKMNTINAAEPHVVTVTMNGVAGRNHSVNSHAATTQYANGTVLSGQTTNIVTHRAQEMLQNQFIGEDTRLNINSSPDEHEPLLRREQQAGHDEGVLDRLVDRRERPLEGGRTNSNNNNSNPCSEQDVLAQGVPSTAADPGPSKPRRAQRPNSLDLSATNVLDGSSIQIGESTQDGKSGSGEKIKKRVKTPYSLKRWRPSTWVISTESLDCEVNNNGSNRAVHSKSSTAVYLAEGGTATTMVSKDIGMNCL
T2 sequence (Q04771 21-509): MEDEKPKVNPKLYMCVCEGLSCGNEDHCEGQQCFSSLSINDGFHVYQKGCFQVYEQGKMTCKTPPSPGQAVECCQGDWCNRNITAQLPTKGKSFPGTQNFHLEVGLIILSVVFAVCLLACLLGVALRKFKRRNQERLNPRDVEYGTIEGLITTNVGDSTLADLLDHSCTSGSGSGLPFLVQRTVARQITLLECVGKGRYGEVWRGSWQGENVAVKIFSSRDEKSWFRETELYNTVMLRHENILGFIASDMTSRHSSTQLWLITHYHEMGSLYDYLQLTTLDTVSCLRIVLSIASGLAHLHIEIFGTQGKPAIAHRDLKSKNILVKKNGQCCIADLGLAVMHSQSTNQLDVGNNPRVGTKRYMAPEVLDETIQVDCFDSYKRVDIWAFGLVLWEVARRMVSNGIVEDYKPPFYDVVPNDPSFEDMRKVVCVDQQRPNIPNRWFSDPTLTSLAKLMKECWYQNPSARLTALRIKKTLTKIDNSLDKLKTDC

How did the inhibition at 0.1 µM (ABL1 Q252H) turn out when `NS(=O)(=O)c1ccc(Nc2ncc3cc4n(c3n2)C2(CCCCC2)C(=O)NN4)cc1` [INX-315] was run?
The inhibition at 0.1 µM was 19%.

And the inhibition at 0.1 µM (ACVR1 (ALK2))?
Its inhibition at 0.1 µM is -5%.

What about the inhibition at 0.1 µM (ALK R1275Q) of the same compound?
Its inhibition at 0.1 µM is 10%.

What about the inhibition at 0.1 µM (ALK T1151_L1152insT) of the same compound?
The inhibition at 0.1 µM was 6%.

What about the inhibition at 0.1 µM (AXL R499C) of the same compound?
Its inhibition at 0.1 µM is 1%.

And the inhibition at 0.1 µM (BMPR1B (ALK6))?
Its inhibition at 0.1 µM is 1%.

What about the inhibition at 0.1 µM (BMPR2) of the same compound?
The inhibition at 0.1 µM was 17%.

What about the inhibition at 0.1 µM (CAMKK2 (CaMKK beta)) of the same compound?
The inhibition at 0.1 µM was 3%.

And the inhibition at 0.1 µM (CDK9 (Inactive))?
The inhibition at 0.1 µM was 44%.

And the inhibition at 0.1 µM (DDR2 T654M)?
Its inhibition at 0.1 µM is 26%.

What about the inhibition at 0.1 µM (DYRK2) of the same compound?
Its inhibition at 0.1 µM is -4%.

What about the inhibition at 0.1 µM (EPHA6) of the same compound?
The inhibition at 0.1 µM was 10%.

And the inhibition at 0.1 µM (FGFR3 G697C)?
Its inhibition at 0.1 µM is 13%.

What about the inhibition at 0.1 µM (ICK) of the same compound?
The inhibition at 0.1 µM was 28%.

What about the inhibition at 0.1 µM (KIT D816V) of the same compound?
Its inhibition at 0.1 µM is 34%.

What about the inhibition at 0.1 µM (KIT D820E) of the same compound?
Its inhibition at 0.1 µM is 12%.

And the inhibition at 0.1 µM (KIT T670E)?
Its inhibition at 0.1 µM is 9%.

What about the inhibition at 0.1 µM (KIT Y823D) of the same compound?
The inhibition at 0.1 µM was 31%.

And the inhibition at 0.1 µM (MAP2K2 (MEK2))?
Its inhibition at 0.1 µM is 0%.

And the inhibition at 0.1 µM (MAP2K4 (MEK4))?
The inhibition at 0.1 µM was 17%.

And the inhibition at 0.1 µM (MAP3K3 (MEKK3))?
The inhibition at 0.1 µM was 18%.

What about the inhibition at 0.1 µM [1] of the same compound?
The inhibition at 0.1 µM was 14%.

What about the inhibition at 0.1 µM (MASTL) of the same compound?
Its inhibition at 0.1 µM is 0%.

What about the inhibition at 0.1 µM (NEK8) of the same compound?
Its inhibition at 0.1 µM is 0%.

What about the inhibition at 0.1 µM (PLK4) of the same compound?
The inhibition at 0.1 µM was 29%.

And the inhibition at 0.1 µM (PRKACG (PRKAC gamma))?
The inhibition at 0.1 µM was -12%.

What about the inhibition at 0.1 µM (RET V804M) of the same compound?
Its inhibition at 0.1 µM is 21%.

And the inhibition at 0.1 µM (RIPK2)?
Its inhibition at 0.1 µM is -1%.

What about the inhibition at 0.1 µM (RIPK3) of the same compound?
The inhibition at 0.1 µM was -9%.

And the inhibition at 0.1 µM (SIK1)?
The inhibition at 0.1 µM was 4%.

And the inhibition at 0.1 µM (STK16 (PKL12))?
Its inhibition at 0.1 µM is 57%.

And the inhibition at 0.1 µM (STK17A (DRAK1))?
The inhibition at 0.1 µM was 2%.

And the inhibition at 0.1 µM (STK32C (YANK3))?
Its inhibition at 0.1 µM is -1%.

And the inhibition at 0.1 µM (TAOK1)?
Its inhibition at 0.1 µM is 22%.

What about the inhibition at 0.1 µM (TEC) of the same compound?
Its inhibition at 0.1 µM is 4%.

What about the inhibition at 0.1 µM (TESK1) of the same compound?
Its inhibition at 0.1 µM is 2%.

And the inhibition at 0.1 µM (TGFBR2)?
The inhibition at 0.1 µM was 7%.

What about the inhibition at 0.1 µM (WNK1) of the same compound?
Its inhibition at 0.1 µM is 4%.
